Results as given in publication PMC7351850 (European Journal of Clinical Pharmacology, 2020).
One block for each compound: values may come before it.

Experiments:
[1] = clinical; settings: male, human, plasma, po, 750 mg, metformin 750 mg single dose alone, fed, n=24; for AUC(0-inf): Plasma AUCinf of metformin; for Cmax: Plasma Cmax of metformin
Protocol: (§5) Subjects were admitted to hospital on Day 1 and were discharged on Day 12. […] On Day 3 and Days 5–11, subjects received peficitinib 150 mg (150 mg × 1 tablet), once daily. Subjects returned for an end-of-study examination on Day 15 ± 2.
(§6) The planned sample size was 24 subjects, based on the precedent set by other PK studies of a similar nature [21, 22]. The safety analysis set (SAF) consisted of all subjects who received at least one dose of study drug. The PK analysis set (PKAS) consisted of subjects who received the study drug and provided at least one estimable PK parameter. Plasma PK parameters were calculated by non-compartmental analysis using Phoenix(R) WinNonlin(R) software, version 6.2 (Certara USA, Inc., Princeton, NJ, USA). Baseline demographic and other characteristics, vital signs, clinical laboratory findings, 12-lead ECG results and TEAEs were summarised for the SAF using descriptive statistics.
(§7) Statistical analyses were performed using SAS(R) software, version 9.4 (SAS Institute Inc., Cary, NC, USA). […] The least-square (LS) geometric mean ratio (GMR) and its 90% confidence interval (CI) were calculated using the exponential-transformed LS geometric mean difference and CI. Missing data were not imputed or used for analyses.

[2] = metformin 750 mg single dose alone, fed, n=24
Protocol: as §5, §6, §7

[3] = molecular target: T1, MATE1 (Homo sapiens, UniProt Q96FL8); assay: Inhibition of [14C]metformin uptake into MATE1-expressing HEK293 cells; format: cell-based
T1 construct: containing full-length human transporter cDNA; host or cells: HEK293
T1 sequence (Q96FL8 1-570): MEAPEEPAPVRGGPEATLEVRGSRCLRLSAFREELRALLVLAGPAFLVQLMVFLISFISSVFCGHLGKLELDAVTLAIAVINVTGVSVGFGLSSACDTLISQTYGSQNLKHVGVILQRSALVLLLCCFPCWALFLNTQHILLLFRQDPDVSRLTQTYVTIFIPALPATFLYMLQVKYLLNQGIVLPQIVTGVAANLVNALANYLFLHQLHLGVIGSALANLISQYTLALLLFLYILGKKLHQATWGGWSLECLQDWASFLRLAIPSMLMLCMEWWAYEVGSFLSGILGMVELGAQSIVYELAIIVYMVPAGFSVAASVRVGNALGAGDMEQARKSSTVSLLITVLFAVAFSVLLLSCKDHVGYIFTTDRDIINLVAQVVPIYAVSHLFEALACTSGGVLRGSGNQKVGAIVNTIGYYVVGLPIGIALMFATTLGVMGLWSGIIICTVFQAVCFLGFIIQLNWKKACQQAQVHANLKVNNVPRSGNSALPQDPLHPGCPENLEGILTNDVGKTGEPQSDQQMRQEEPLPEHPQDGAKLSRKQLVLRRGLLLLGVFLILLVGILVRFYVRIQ
Source text: (§1) Human embryonic kidney (HEK293) cells expressing OCT1, OCT2, MATE1 and MATE2-K were established at the ADME & Tox. Research Institute (Sekisui Medical Co., Ltd, Ibaraki, Japan) by transfection of a pcDNA vector (Invitrogen, Carlsbad, CA, USA) containing full-length human transporter cDNA. Control HEK293 cells were established by transfection of the empty vector. The expression level of transporter mRNA in transfected cells was verified periodically by real-time polymerase chain reaction. […] The cells were maintained at 37 °C with 5% CO2 in DMEM containing 10% FBS with antibiotic-antimycotics and L-glutamine.
(§2) Assays were performed in triplicate. […]
(§3) After incubation, the test solution was removed, and the cells were washed once with ice-cold 0.2% bovine serum albumin in phosphate-buffered saline (PBS) and twice with 1 mL of ice-cold PBS. […] After the cell lysate was mixed by pipetting, 0.3 mL (OCT1, OCT2, and MATE1) or 0.5 mL (MATE2-K) of the lysate was collected into a glass vial and mixed with 10 mL of the scintillator Hionic-fluor (PerkinElmer, Inc., Waltham, MA, USA) to measure the radioactivity using a liquid scintillation counter (2500TR [PerkinElmer, Inc.]).
(§4) Protein content was measured using the BCA Protein Assay Kit (Thermo Fisher Scientific, Inc., Waltham, MA, USA, or Pierce, Rockford, IL, USA) in accordance with the manufacture’s recommendations. […]

[4] = molecular target: T2, MATE2-K (Homo sapiens, UniProt Q86VL8); assay: Inhibition of [14C]metformin uptake into MATE2-K-expressing HEK293 cells; format: cell-based
T2 construct: containing full-length human transporter cDNA; expressed in transfected cells; host or cells: HEK293 (transient transfection)
Source text: as §1, §2, §3, §4

[5] = molecular target: T3, OCT2 (Homo sapiens, UniProt O15244); assay: Inhibition of [14C]metformin uptake into OCT2-expressing HEK293 cells; format: cell-based
T3 construct: containing full-length human transporter cDNA; host or cells: HEK293
T3 sequence (O15244 1-555): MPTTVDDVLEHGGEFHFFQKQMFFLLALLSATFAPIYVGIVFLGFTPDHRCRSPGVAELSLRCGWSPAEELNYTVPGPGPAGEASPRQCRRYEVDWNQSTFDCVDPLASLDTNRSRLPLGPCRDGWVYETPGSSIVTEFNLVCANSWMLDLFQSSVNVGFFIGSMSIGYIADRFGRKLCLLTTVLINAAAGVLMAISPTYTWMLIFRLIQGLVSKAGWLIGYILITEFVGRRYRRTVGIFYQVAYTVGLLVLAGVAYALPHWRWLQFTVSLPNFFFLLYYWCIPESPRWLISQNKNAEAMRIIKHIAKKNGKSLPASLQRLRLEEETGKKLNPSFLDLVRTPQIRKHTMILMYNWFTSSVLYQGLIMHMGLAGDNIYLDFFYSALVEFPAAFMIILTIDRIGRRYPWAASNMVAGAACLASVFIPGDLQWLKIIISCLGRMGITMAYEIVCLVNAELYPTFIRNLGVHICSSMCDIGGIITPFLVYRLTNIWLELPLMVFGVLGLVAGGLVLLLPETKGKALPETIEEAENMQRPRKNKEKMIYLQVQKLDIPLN
Source text: as §1, §2, §3, §4

[6] = design: method as in earlier work; settings: cited from earlier work
[7] = molecular target: T4, OCT1 (Homo sapiens, UniProt O15245); assay: Inhibition of [14C]metformin uptake into OCT1-expressing HEK293 cells; format: cell-based
T4 construct: containing full-length human transporter cDNA; host or cells: HEK293
T4 sequence (O15245 1-554): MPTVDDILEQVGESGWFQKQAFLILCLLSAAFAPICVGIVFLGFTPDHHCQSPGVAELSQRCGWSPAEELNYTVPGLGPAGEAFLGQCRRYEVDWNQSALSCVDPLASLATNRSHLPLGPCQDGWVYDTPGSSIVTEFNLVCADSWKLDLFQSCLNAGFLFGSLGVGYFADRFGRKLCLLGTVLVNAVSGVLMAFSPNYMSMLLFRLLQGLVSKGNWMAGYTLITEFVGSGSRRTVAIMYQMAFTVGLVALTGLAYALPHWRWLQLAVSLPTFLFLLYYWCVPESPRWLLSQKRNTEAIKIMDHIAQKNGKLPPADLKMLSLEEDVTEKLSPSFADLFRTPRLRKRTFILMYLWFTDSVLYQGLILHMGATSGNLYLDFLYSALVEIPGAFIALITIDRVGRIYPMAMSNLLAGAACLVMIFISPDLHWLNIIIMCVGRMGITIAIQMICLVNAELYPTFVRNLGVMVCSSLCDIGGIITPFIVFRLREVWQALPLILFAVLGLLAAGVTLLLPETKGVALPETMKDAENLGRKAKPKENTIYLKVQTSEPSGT
Source text: as §1, §2, §3, §4

[8] = Earlier clinical pharmacokinetic and mass balance studies of peficitinib; format: in vivo, healthy subjects; settings: single oral dose of 150 mg, fasted; calculated from 524.5 ng/mL assuming 72.83% protein bound
[9] = Clinical drug-drug interaction study: safety (treatment-emergent adverse events); format: in vivo, healthy male subjects
Protocol: Safety assessments were undertaken from screening through to the final study assessment. Safety was assessed by the monitoring of adverse events, vital signs (supine blood pressure, supine pulse and axillary temperature), clinical laboratory tests (haematology, biochemistry and urinalysis) and 12-lead electrocardiograms (ECGs).
TEAEs were graded using the National Cancer Institute’s Common Terminology Criteria for Adverse Events (NCI CTCAE) guidelines (version 4.0).

[10] = cited from earlier work
[11] = single oral dose of [14C]peficitinib, six healthy male subjects

T2 sequence (Q86VL8 1-566 isoform Q86VL8-3): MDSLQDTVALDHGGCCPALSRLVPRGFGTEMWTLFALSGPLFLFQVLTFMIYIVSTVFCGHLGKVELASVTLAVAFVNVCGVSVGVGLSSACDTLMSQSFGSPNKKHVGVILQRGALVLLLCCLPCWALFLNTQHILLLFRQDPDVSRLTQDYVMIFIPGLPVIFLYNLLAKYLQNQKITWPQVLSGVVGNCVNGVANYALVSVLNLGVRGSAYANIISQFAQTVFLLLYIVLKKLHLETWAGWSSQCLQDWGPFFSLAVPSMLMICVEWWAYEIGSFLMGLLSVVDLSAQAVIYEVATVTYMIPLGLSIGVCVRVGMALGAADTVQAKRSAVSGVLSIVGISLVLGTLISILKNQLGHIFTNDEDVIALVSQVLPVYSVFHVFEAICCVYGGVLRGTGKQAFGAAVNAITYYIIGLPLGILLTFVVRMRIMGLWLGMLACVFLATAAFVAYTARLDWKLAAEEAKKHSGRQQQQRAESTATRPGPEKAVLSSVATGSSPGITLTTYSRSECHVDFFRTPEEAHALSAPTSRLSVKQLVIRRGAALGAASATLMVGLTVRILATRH

AUC(0-inf) ([1]; median): 9050 ng·h/mL
AUC(0-inf) ([1]; min-max): 6820 to 12500 ng·h/mL
Cmax ([1]; mean (SD)): 1380 ng/mL
Cmax ([1]; median): 1380 ng/mL
Cmax ([1]; min-max): 973 to 2030 ng/mL
CL/F of metformin, mean (SD) [2]: 83.6 (12.5) L/h
CL/F of metformin, median [2]: 82.9 L/h
CL/F of metformin, min-max [2]: 60.2 to 110 L/h
Plasma AUClast of metformin, mean (SD) [2]: 9050 (1410) ng∙h/mL
Plasma AUClast of metformin, median [2]: 8990 ng·h/mL
Urine Aelast% of metformin, mean (SD) [2]: 38.6 (3.77) %
Urine Aelast% of metformin, median [2]: 37.7%
Urine Aelast% of metformin, min-max [2]: 33.0–49.8%
tmax of metformin, median [2]: 3.00 h
Compound: CN(C)C(=N)N=C(N)N [Metformin]

[14C]metformin uptake into MATE1-expressing cells, % of uptake in the absence of inhibitors ([3]; typical inhibitor, cimetidine 10 μmol/L): 11.9–14.7%
[14C]metformin uptake into MATE2-K-expressing cells, % of uptake in the absence of inhibitors ([4]; typical inhibitor, cimetidine 100 μmol/L): 8.2–15.1%
Compound: CN/C(=N/CCSCc1nc[nH]c1C)NC#N [cimetidine, reference compound]

IC50 [5]: 71.4 µM
IC50 [7]: 0.247 µM
IC50 [3]: 10 µM
Cmax of unbound peficitinib [8]: 440 nM
IC50 [4]: 20.8 µM
Compound: NC(=O)c1cnc2[nH]ccc2c1N[C@@H]1[C@@H]2CC3C[C@H]1C[C@@](O)(C3)C2 [Peficitinib]
Protein bound [6]: 72.83%
Tolerability ([9]; peficitinib 150 mg, metformin 750 mg, no serious TEAEs or TEAEs leading to treatment withdrawal): generally well tolerated
Subjects with TEAEs ([9]; peficitinib alone phase, 150 mg once daily, 3/24 subjects, four mild (Grade 1) TEAEs, all considered drug related): 12.5%
Increased aspartate aminotransferase, subjects ([9]; peficitinib alone phase, 1/24): 4.2%
Soft faeces, subjects ([9]; peficitinib alone phase, 1/24): 4.2%
Increased alanine aminotransferase, subjects ([9]; peficitinib alone phase, 2/24): 8.3%
Urinary excretion, share of an oral dose ([10]; single and multiple doses, healthy subjects, two Phase I trials): 9–15%
Cmax of peficitinib ([10]; single oral dose of 150 mg, fasted conditions): 524.5 ng/mL
Share of the peficitinib dose absorbed ([10]; single oral dose of [14C]peficitinib, six healthy male subjects, assuming stability in the gastrointestinal tract): approximately 64%
Mean faecal excretion as unchanged peficitinib, share of administered dose [10, 11]: 29.8%
Mean recovery in faeces [10, 11]: 56.6%
Mean recovery in urine [10, 11]: 36.8%
